Patent US20210169080A1, “HETEROCYCLE DERIVATIVES AS PESTICIDES” (Bayer Aktiengesellschaft, priority 2018, published 2021)

Tests used:
Spodoptera frugiperda = Spodoptera frugiperda spray test; format: in vivo; settings: 100 g/ha, sprayed maize leaf discs, after 7 days
Procedure: (§1) [table] To produce a suitable active compound formulation, 1 part by weight of active compound is dissolved with the specified parts by weight of solvent and made up to the desired concentration with water containing an emulsifier concentration of 1000 ppm. To produce further test concentrations, the formulation is diluted with emulsifier-containing water. Leaf discs of maize (Zea mays) are sprayed with an active compound formulation of the desired concentration and, after drying, populated with caterpillars of the fall armyworm (Spodoptera frugiperda). After 7 days, the efficacy in % is determined. 100% means that all the caterpillars have been killed; 0% means that no caterpillar has been killed.

Phaedon cochleariae = Phaedon cochleariae spray test; format: in vivo; settings: 100 g/ha, sprayed Chinese cabbage leaf discs, after 7 days
Procedure: as §1, with “water. Discs” for “water. Leaf discs”, “of Chinese cabbage leaves (Brassica pekinensis)” for “of maize (Zea mays)”, “with larvae” for “with caterpillars”, “the mustard beetle (Phaedon cochleariae).” for “the fall armyworm (Spodoptera frugiperda).”, “the beetle larvae” for “the caterpillars”, “no beetle larvae have” for “no caterpillar has”

[1] = log P by reversed-phase HPLC (EEC Directive 79/831 Annex V.A8), acidic method; format: physicochemical; settings: HPLC on reversed-phase C18, acidic range, formic acid in water/acetonitrile; for chromatographic logP: reversed-phase C18 HPLC column
Procedure: The log P values were determined according to EEC Directive 79/831 Annex V.A8 by HPLC (high-performance liquid chromatography) on a reversed-phase column (C18) using the following methods: ^[a] […] Calibration was carried out using a homologous series of straight-chain alkan-2-ones (having 3 to 16 carbon atoms) with known log P values. The values between successive alkanones are determined by linear regression.

Ctenocephalides felis [2] = test: Ctenocephalides felis oral test; format: in vivo; settings: 100 ppm in citrated cattle blood, adult cat fleas, after 2 days
Procedure: Solvent: dimethyl sulfoxide To produce a suitable active compound formulation, 10 mg of active compound are mixed with 0.5 ml of dimethyl sulfoxide. Dilution with citrated cattle blood gives the desired concentration. About 20 unfed adult cat fleas (Ctenocephalides felis) are placed into a chamber which is closed at the top and bottom with gauze. A metal cylinder whose bottom end is closed with parafilm is placed onto the chamber. The cylinder contains the blood/active compound formulation, which can be imbibed by the fleas through the parafilm membrane. After 2 days, the kill in % is determined. 100% means that all of the fleas have been killed; 0% means that none of the fleas have been killed.

Ctenocephalides felis [3] = test: Ctenocephalides felis in vitro contact test with adult cat fleas; format: in vivo; settings: application rate 5 μg/cm^2 (=500 g/ha), after 48 h
Procedure: For the coating of the test tubes, 9 mg of active compound are first dissolved in 1 ml of acetone p.a. and then diluted to the desired concentration with acetone p.a. 250 μl of the solution are distributed homogeneously on the inner walls and the base of a 25 ml glass tube by turning and rocking on an orbital shaker (rocking rotation at 30 rpm for 2 h). With 900 ppm of active compound solution and internal surface area 44.7 cm^2, given homogeneous distribution, an area-based dose of 5 μg/cm^2 is achieved. After the solvent has evaporated off, the tubes are populated with 5-10 adult cat fleas (Ctenocephalides felis), sealed with a perforated plastic lid and incubated in a horizontal position at room temperature and ambient humidity. After 48 h, efficacy is determined. To this end, the tubes are stood upright and the fleas are knocked to the base of the tube. Fleas which remain motionless at the base or move in an uncoordinated manner are considered to be dead or moribund. […] 100% efficacy means that all the fleas were dead or moribund. 0% efficacy means that no fleas were harmed.

Boophilus microplus = Boophilus microplus injection test; format: in vivo; settings: 20 μg/animal injected into abdomen of engorged adult female cattle ticks, assessed after 7 days
Procedure: Solvent: dimethyl sulfoxide To produce a suitable active compound formulation, 10 mg of active compound are mixed with 0.5 ml of solvent and the concentrate is diluted to the desired concentration with solvent. 1 μl of the active compound solution is injected into the abdomen of 5 engorged adult female cattle ticks (Boophilus microplus). The animals are transferred into dishes and kept in a climate-controlled room. The activity is assessed after 7 days by laying of fertile eggs. Eggs which are not visibly fertile are stored in a climate-controlled cabinet until the larvae hatch after about 42 days. An efficacy of 100% means that none of the ticks has laid any fertile eggs; 0% means that all the eggs are fertile.

Rhipicephalus sanguineus = Rhipicephalus sanguineus in vitro contact test with adult brown dog ticks; format: in vivo; settings: application rate 5 μg/cm^2 (=500 g ai/ha), after 48 h
Procedure: For the coating of the test tubes, 9 mg of active compound are first dissolved in 1 ml of acetone p.a. and then diluted to the desired concentration with acetone p.a. 250 μl of the solution are distributed homogeneously on the inner walls and the base of a 25 ml glass tube by turning and rocking on an orbital shaker (rocking rotation at 30 rpm for 2 h). With 900 ppm of active compound solution and internal surface area 44.7 cm^2, given homogeneous distribution, an area-based dose of 5 μg/cm^2 is achieved. After the solvent has evaporated off, the tubes are populated with 5-10 adult dog ticks (Rhipicephalus sanguineus), sealed with a perforated plastic lid and incubated in a horizontal position in the dark at room temperature and ambient humidity. After 48 h, efficacy is determined. To this end, the ticks are knocked to the base of the tube and incubated on a hotplate at 45-50° C. for not more than 5 min. Ticks which remain motionless on the base or move in such an uncoordinated manner that they are unable to deliberately avoid the heat by climbing upwards are considered to be dead or moribund. […] An efficacy of 100% means that all the ticks were dead or moribund. 0% efficacy means that none of the ticks were harmed.

Diabrotica balteata = Diabrotica balteata spray test; format: in vivo; settings: 160 μg/cavity, germinated wheat corns infested with beetle larvae, after 7 days
Procedure: [table] To produce a suitable active compound formulation, 1 part by weight of active compound is dissolved with the specified parts by weight of solvent and made up to the desired concentration with water containing an emulsifier concentration of 1000 ppm. To produce further test concentrations, the formulation is diluted with emulsifier-containing water. Pre-swollen wheat corns (Triticum aestivum) are incubated for one day in a multiwell plate filled with agar and a little water (5 seed corns per cavity). The germinated wheat corns are sprayed with an active compound formulation of the desired concentration. Subsequently, each cavity is infested with 10-20 Diabrotica balteata beetle larvae. After 7 days, the efficacy in % is determined. 100% means that all wheat plants have grown as in the untreated uninfested control; 0% means that no wheat plant has grown.

Myzus persicae [4] = test: Myzus persicae oral test; format: in vivo; settings: 4 ppm, oral uptake through parafilm, after 5 days
Procedure: [table] To produce a suitable active compound formulation, 1 part by weight of active compound is dissolved with the stated parts by weight of solvent and made up to the desired concentration with water. 50 μl of the active compound formulation are transferred into microtitre plates and made up to a final volume of 200 μl with 150 μl of IPL41 insect medium (33%+15% sugar). Subsequently, the plates are sealed with parafilm, which a mixed population of green peach aphids (Myzus persicae) within a second microtitre plate is able to puncture and imbibe the solution. After 5 days, the efficacy in % is determined. 100% means that all the aphids have been killed; 0% means that no aphids have been killed.

Myzus persicae [5] = test: Myzus persicae spray test; format: in vivo; settings: 100 g/ha, sprayed Chinese cabbage leaf discs, after 5 days
Procedure: as §1, with “Discs” for “Leaf discs”, “Chinese cabbage leaves (Brassica pekinensis) infested by all stages of the green peach aphid (Myzus persicae)” for “maize (Zea mays)”, “concentration.” for “concentration and, after drying, populated with caterpillars of the fall armyworm (Spodoptera frugiperda).”, “5” for “7”, “aphids” for “caterpillars”, “aphids have” for “caterpillar has”

Structure (SMILES)	chromatographic logP [1]	log P (acidic) [1]	efficacy (caterpillars killed) (Spodoptera frugiperda) [%]	efficacy (beetle larvae killed) (Phaedon cochleariae) [%]	efficacy (kill in %) (Ctenocephalides felis [2]) [%]	efficacy (fleas dead or moribund) (Ctenocephalides felis [3]) [%]	efficacy (no laying of fertile eggs) (Boophilus microplus) [%]	efficacy (ticks dead or moribund) (Rhipicephalus sanguineus) [%]	efficacy (wheat plants grown as in uninfested control) (Diabrotica balteata) [%]	efficacy (aphids killed) (Myzus persicae [4]) [%]	efficacy (aphids killed) (Myzus persicae [5]) [%]
CCS(=O)(=O)c1c(-c2nc3cc(SC(F)(F)F)ccc3o2)nc2cc(C3(C#N)CC3)ccn12 [Example 1-3, 1-[3-(Ethylsulfonyl)-2-{5-[(trifluoromethyl)sulfanyl]-1,3-benzoxazol-2-yl}imidazo-[1,2-a]pyridin-7-yl]cyclopropanecarbonitrile]	3.63		100	100	100	100	90	80			
CCS(=O)(=O)c1c(-c2nc3cc(S(=O)(=O)C(F)(F)F)ccc3o2)nc2cc(C3(C#N)CC3)ccn12 [Example 1-1, 1-[3-(Ethylsulfonyl)-2-{5-[(trifluoromethyl)sulfonyl]-1,3-benzoxazol-2-yl}imidazo-[1,2-a]pyridin-7-yl]cyclopropanecarbonitrile]	3.18		100	100	95					100	
CCS(=O)(=O)c1c(-c2nc3cc([S+]([O-])C(F)(F)F)ccc3o2)nc2cc(C3(C#N)CC3)ccn12 (stereo not shown) [Example 1-2, 1-[3-(ethylsulfonyl)-2-{5-[(trifluoromethyl)sulfinyl]-1,3-benzoxazol-2-yl}imidazo[1,2-a]pyridin-7-yl]cyclo-propanecarbonitrile]	2.67		100	100	100					100	100

Further lines, with some results ahead:

chromatographic logP [1]	log P (acidic) [1]	Structure (SMILES)	efficacy (caterpillars killed) (Spodoptera frugiperda) [%]	efficacy (beetle larvae killed) (Phaedon cochleariae) [%]	efficacy (kill in %) (Ctenocephalides felis [2]) [%]	efficacy (fleas dead or moribund) (Ctenocephalides felis [3]) [%]	efficacy (no laying of fertile eggs) (Boophilus microplus) [%]	efficacy (ticks dead or moribund) (Rhipicephalus sanguineus) [%]	efficacy (wheat plants grown as in uninfested control) (Diabrotica balteata) [%]	efficacy (aphids killed) (Myzus persicae [4]) [%]	efficacy (aphids killed) (Myzus persicae [5]) [%]
3.22		CCS(=O)(=O)c1c(-c2nc3cc(C(F)(F)F)ccc3o2)nc2cc(C3(C#N)CC3)ccn12 [Example 1-4]	100	100							
	3.68	CCS(=O)(=O)c1c(-c2nc3cc(C(F)(F)C(F)(F)F)ccc3o2)nc2cc(C3(C#N)CC3)ccn12 [Example 1-6, 1-[3-Ethylsulfonyl-2-[5-(l, 1,2,2,2-pentafluoroethyl)-1,3-benzoxazol-2-yl]imidazo [1,2-a]pyridin-7-yl]cyclopropanecarbonitrile]									
3.29		CCS(=O)(=O)c1c(-c2nc3cc(OC(F)(F)F)ccc3o2)nc2cc(C3(C#N)CC3)ccn12 [Example 1-5, 1-[3-Ethylsulfonyl-2-[5-(trifluoromethoxy)-1,3-benzoxazol-2-yl]imidazo[1,2-a]pyridin-7-yl]cyclopropanecarbonitrile]	83						100		
